Experimental findings from patent US8026243B2, “[4,5′]Bipyrimidinyl-6,4′-diamine derivatives as protein kinase inhibitors” (Novartis AG, priority 2006, dated 2011) are described below.

In the assay the target is T1, Ba/F3-TEL-FGFR3 cells (Homo sapiens, UniProt P22607).
T1 construct: fused on or other part: The N-terminal oligomerising part of TEL (ETV6) is fused before the intracellular kinase part of FGFR3; P41212 (Transcription factor ETV6)
The assay is described as follows: FGFR3 cellular assay: proliferation of transformed Ba/F3-TEL-FGFR3 cells (AlamarBlue). The assay is classed as cell-based. Particulars: 48 hours incubation, class symbols. On the procedure: Compounds of the invention are tested for their ability to inhibit transformed Ba/F3-TEL-FGFR3 cells proliferation, which is dependent on FGFR3 cellular kinase activity. Ba/F3-TEL-FGFR3 are cultured up to 800,000 cells/mL in suspension, with RPMI 1640 supplemented with 10% fetal bovine serum as the culture medium. Cells are dispensed into 384-well format plate at 5000 cell/well in […], culture medium. Compounds of the invention are dissolved and diluted in dimethylsulfoxide (DMSO). Twelve points 1:3 serial dilutions are made into DMSO to create concentrations gradient ranging typically from 10 mM to 0.05 μM. Cells are added with 50 nL of diluted compounds and incubated for 48 hours in cell culture incubator. AlamarBlue® (TREK Diagnostic Systems), which can be used to monitor the reducing environment created by proliferating cells, are added to cells at final concentration of 10%. After additional four hours of incubation in a 37° C. cell culture incubator, fluorescence signals from reduced AlamarBlue® (Excitation at 530 nm, Emission at 580 nm) are quantified on Analyst GT (Molecular Devices Corp.). IC50 values are calculated by linear regression analysis of the percentage inhibition of each compound at 12 concentrations.
(Alamar Blue is a resazurin reagent that responds to reducing activity.)

T1 sequence (P22607 whole entry, change not shown, the tested form may be a part): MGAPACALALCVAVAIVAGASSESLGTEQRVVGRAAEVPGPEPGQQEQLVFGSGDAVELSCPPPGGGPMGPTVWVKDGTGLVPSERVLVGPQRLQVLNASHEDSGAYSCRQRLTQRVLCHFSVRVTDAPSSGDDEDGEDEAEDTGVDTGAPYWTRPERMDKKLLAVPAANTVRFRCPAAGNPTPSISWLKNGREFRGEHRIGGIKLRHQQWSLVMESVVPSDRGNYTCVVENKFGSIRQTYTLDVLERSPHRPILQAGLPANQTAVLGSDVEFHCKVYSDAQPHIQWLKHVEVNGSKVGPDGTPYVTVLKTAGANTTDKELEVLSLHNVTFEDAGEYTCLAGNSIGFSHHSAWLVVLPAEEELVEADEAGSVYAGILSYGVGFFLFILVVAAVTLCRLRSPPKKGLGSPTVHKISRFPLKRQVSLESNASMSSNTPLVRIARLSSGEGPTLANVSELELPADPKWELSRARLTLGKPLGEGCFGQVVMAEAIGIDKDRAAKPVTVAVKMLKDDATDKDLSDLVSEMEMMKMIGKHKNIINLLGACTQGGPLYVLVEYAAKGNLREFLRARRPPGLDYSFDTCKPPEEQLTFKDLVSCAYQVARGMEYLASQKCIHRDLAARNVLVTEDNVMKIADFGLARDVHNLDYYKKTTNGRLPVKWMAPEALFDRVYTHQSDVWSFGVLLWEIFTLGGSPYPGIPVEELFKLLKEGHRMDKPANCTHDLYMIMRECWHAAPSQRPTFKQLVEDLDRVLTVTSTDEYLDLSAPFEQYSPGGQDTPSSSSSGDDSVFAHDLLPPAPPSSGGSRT

On to `COc1cc(C(N)=O)c(Cl)c(Nc2ncncc2-c2cc(Nc3ccc(CN4CCOCC4)cn3)ncn2)c1Cl` [Compound 26, 2,4-Dichloro-5-methoxy-3-[6-(5-morpholin-4-yl-methyl-pyridin-2-ylamino)-[4,5′]bipyrimidinyl-4′-ylamino]-benzamide], for which the 50% growth inhibitory concentration (GI50) was in the range of 250 to 500 nM. The result for `COC(=O)c1cc(OC)c(Cl)c(Nc2ncncc2-c2cc(Nc3ccc(CN4CCOCC4)cn3)ncn2)c1Cl` [Compound 27, 2,4-Dichloro-5-methoxy-3-[6-(5-morpholin-4-ylmethyl-pyridin-2-ylamino)-[4,5′]bipyrimidinyl-4′-ylamino]-benzoic acid methyl ester] reads less than 100 nM. The result for `CCN(CC)Cc1ccc(Nc2cc(-c3cncnc3Nc3c(Cl)c(OC)cc(OC)c3Cl)ncn2)nc1` [Compound 28, N4′-(2,6-Dichloro-3,5-dimethoxy-phenyl)-N6-(5-diethylamino-methyl-pyridin-2-yl)-[4,5′]bipyrimidinyl-6,4′-diamine] reads less than 100 nM; that for `COc1cc(OC)c(Cl)c(Nc2ncncc2-c2cc(Nc3cccc(C(C)O)c3)ncn2)c1Cl` (stereo not drawn) [Compound 29, 1-{3-[4′-(2,6-Dichloro-3,5-dimethoxy-phenylamino)-[4,5′]bipyrimidinyl-6-ylamino]-phenyl}-ethanol], less than 100 nM; that for `CCNC(=O)c1cc(OC)c(Cl)c(Nc2ncncc2-c2cc(Nc3cc(CN4CCN(C)CC4)ccn3)ncn2)c1Cl` [Compound 30, 2,4-Dichloro-N-ethyl-5-methoxy-3-{6-[4-(4-methyl-piperazin-1-ylmethyl)-pyridin-2-ylamino]-[4,5′]bipyrimidinyl-4′-ylamino}-benzamide], less than 100 nM.

Molecule `CCNC(=O)c1cc(OC)c(Cl)c(Nc2ncncc2-c2cc(Nc3ccc(CN(C)C)cn3)ncn2)c1Cl` [Compound 31, 2,4-Dichloro-3-[6-(5-dimethylaminomethyl-pyridin-2-ylamino)-[4,5′]bipyrimidinyl-4′-ylamino]-N-ethyl-5-methoxy-benzamide] gave a 50% growth inhibitory concentration (GI50) of less than 100 nM.

Take `CCNC(=O)c1cc(OC)c(Cl)c(Nc2ncncc2-c2cc(Nc3ccc(CCN4CCOCC4)cn3)ncn2)c1Cl` [Compound 32, 2,4-Dichloro-N-ethyl-5-methoxy-3-{6-[5-(2-morpholin-4-yl-ethyl)-pyridin-2-ylamino]-[4,5′]bipyrimidinyl-4′-yl-amino}-benzamide]: the 50% growth inhibitory concentration (GI50) lay in the range of 100 to 250 nM. The result for `CCNC(=O)c1cc(OC)c(Cl)c(Nc2ncncc2-c2cc(Nc3cc(CN4CCOCC4)ccn3)ncn2)c1Cl` [Compound 33, 2,4-Dichloro-N-ethyl-5-methoxy-3-[6-(4-morpholin-4-ylmethyl-pyridin-2-ylamino)-[4,5′]bipyrimidinyl-4′-ylamino]-benzamide] reads less than 100 nM; that for `CCNC(=O)c1cc(OC)c(Cl)c(Nc2ncncc2-c2cc(Nc3ccc(CN4CCN(C)CC4)cn3)ncn2)c1Cl` [Compound 34, 2,4-Dichloro-N-ethyl-5-methoxy-3-{6-[5-(4-methyl-piperazin-1-ylmethyl)-pyridin-2-ylamino]-[4,5′]bipyrimidinyl-4′-ylamino}-benzamide], 250 to 500 nM; that for `CCNC(=O)c1cc(OC)c(Cl)c(Nc2ncncc2-c2cc(Nc3ccc(CN4CCCC4)cn3)ncn2)c1Cl` [Compound 35, 2,4-Dichloro-N-ethyl-5-methoxy-3-[6-(5-pyrrolidin-1-ylmethyl-pyridin-2-ylamino)-[4,5′]bipyrimidinyl-4′-ylamino]-benzamide], less than 100 nM. `CCNC(=O)c1cc(OC)c(Cl)c(Nc2ncncc2-c2cc(Nc3ccc(N4CCN(CC)CC4)cc3)ncn2)c1Cl` [Compound 36, 2,4-Dichloro-N-ethyl-3-{6-[4-(4-ethyl-piperazin-1-yl)-phenylamino]-[4,5′]bipyrimidinyl-4′-ylamino}-5-methoxy-benzamide] came in with a GI50 of less than 100 nM. The figure for `COc1cc(Nc2ncncc2-c2cc(Nc3ccc(CN4CCOCC4)cn3)ncn2)c(Cl)c(OC)c1` [Compound 37, N4′-(2-Chloro-3,5-dimethoxy-phenyl)-N6-(5-morpholin-4-ylmethyl-pyridin-2-yl)-[4,5′]bipyrimidinyl-6,4′-diamine] is 100 to 250 nM; for `CCN1CCN(Cc2ccc(Nc3cc(-c4cncnc4Nc4cc(OC)cc(OC)c4Cl)ncn3)nc2)CC1` [Compound 38, N4′-(2-Chloro-3,5-dimethoxy-phenyl)-N6-[5-(4-ethyl-piperazin-1-ylmethyl)-pyridin-2-yl]-[4,5′]bipyrimidinyl-6,4′-diamine] it is 100 to 250 nM.

`COc1cc(Nc2ncncc2-c2cc(Nc3cc(CN4CCN(C)CC4)ccn3)ncn2)c(Cl)c(OC)c1` [Compound 39, N4′-(2-Chloro-3,5-dimethoxy-phenyl)-N6-[4-(4-methyl-piperazin-1-ylmethyl)-pyridin-2-yl]-[4,5′]bipyrimidinyl-6,4′-diamine] yielded a concentration for 50% growth inhibition (GI50) of 100 to 250 nM.

Take `CCN1CCN(c2ccc(Nc3cc(-c4cncnc4Nc4c(Cl)c(OC)cc(OC)c4Cl)ncn3)nc2)CC1` [Compound 40, N4′-(2,6-Dichloro-3,5-dimethoxy-phenyl)-N6-[5-(4-ethyl-piperazin-1-yl)-pyridin-2-yl]-[4,5′]bipyrimidinyl-6,4′-diamine]: the GI50 was less than 100 nM. The figure for `CCN1CCN(c2ccc(Nc3cc(-c4cncnc4Nc4c(Cl)c(OC)cc(C(=O)OC)c4Cl)ncn3)nc2)CC1` [Compound 41, 2,4-Dichloro-3-{6-[5-(4-ethyl-piperazin-1-yl)-pyridin-2-ylamino]-[4,5′]bipyrimidinyl-4′-ylamino}-5-methoxy-benzoic acid methyl ester] is less than 100 nM; for `CCNC(=O)c1cc(OC)c(Cl)c(Nc2ncncc2-c2cc(Nc3ccc(N4CCN(CC)CC4)cn3)ncn2)c1Cl` [Compound 42, 2,4-Dichloro-N-ethyl-3-{6-[5-(4-ethyl-piperazin-1-yl)-pyridin-2-ylamino]-[4,5′]bipyrimidinyl-4′-ylamino}-5-methoxy-benzamide] it is less than 100 nM; for `CCN1CCN(c2ccc(Nc3cc(-c4cncnc4Nc4c(F)c(OC)cc(OC)c4Cl)ncn3)nc2)CC1` [Compound 43, N4′-(2-Chloro-6-fluoro-3,5-dimethoxy-phenyl)-N6-[5-(4-ethyl-piperazin-1-yl)-pyridin-2-yl]-[4,5′]bipyrimidinyl-6,4′-diamine] it is less than 100 nM. The result for `COc1cc(OC)c(Cl)c(Nc2ncncc2-c2cc(Nc3ccc(CN4CCOCC4)cn3)ncn2)c1F` [Compound 44, N4′-(2-Chloro-6-fluoro-3,5-dimethoxy-phenyl)-N6-(5-morpholin-4-ylmethyl-pyridin-2-yl)-[4,5′]bipyrimidinyl-6,4′-diamine] reads less than 100 nM; that for `CCN1CCN(Cc2ccc(Nc3cc(-c4cncnc4Nc4c(F)c(OC)cc(OC)c4Cl)ncn3)nc2)CC1` [Compound 45, N4′-(2-Chloro-6-fluoro-3,5-dimethoxy-phenyl)-N6-[5-(4-ethyl-piperazin-1-ylmethyl)-pyridin-2-yl]-[4,5′]bipyrimidinyl-6,4′-diamine], less than 100 nM; that for `COc1cc(OC)c(Cl)c(Nc2ncncc2-c2cc(Nc3cc(CN4CCOCC4)ccn3)ncn2)c1F` [Compound 46, N4′-(2-Chloro-6-fluoro-3,5-dimethoxy-phenyl)-N6-(4-morpholin-4-ylmethyl-pyridin-2-yl)-[4,5′]bipyrimidinyl-6,4′-diamine], less than 100 nM.

For the molecule `CCN1CCN(c2ccc(Nc3cc(-c4cncnc4Nc4c(Cl)c(OC)cc(OC)c4Br)ncn3)nc2)CC1` [Compound 47, N4′-(2-Bromo-6-chloro-3,5-dimethoxy-phenyl)-N6-[5-(4-ethyl-piperazin-1-yl)-pyridin-2-yl]-[4,5′]bipyrimidinyl-6,4′-diamine], the 50% growth inhibitory concentration (GI50) was less than 100 nM.

Consider `CCN1CCN(c2ccc(Nc3cc(-c4cncnc4Nc4c(C)c(OC)cc(OC)c4Cl)ncn3)nc2)CC1` [Compound 48, N4′-(2-Chloro-3,5-di-methoxy-6-methyl-phenyl)-N6-[5-(4-ethyl-piperazin-1-yl)-pyridin-2-yl]-[4,5′]bipyrimidinyl-6,4′-diamine], for which the 50% growth inhibitory concentration (GI50) is less than 100 nM. The result for `COc1cc(OC)c(Br)c(Nc2ncncc2-c2cc(Nc3ccc(CN4CCOCC4)cn3)ncn2)c1Cl` [Compound 49, N4′-(2-Bromo-6-chloro-3,5-dimethoxy-phenyl)-N6-(5-morpholin-4-ylmethyl-pyridin-2-yl)-[4,5′]bipyrimidinyl-6,4′-diamine] reads less than 100 nM.

In the case of `CCN1CCN(Cc2ccc(Nc3cc(-c4cncnc4Nc4c(Cl)c(OC)cc(OC)c4Br)ncn3)nc2)CC1` [Compound 50, N4′-(2-Bromo-6-chloro-3,5-dimethoxy-phenyl)-N6-[5-(4-ethyl-piperazin-1-ylmethyl)-pyridin-2-yl]-[4,5′]bipyrimidinyl-6,4′-diamine], the GI50 was less than 100 nM. The result for `COc1cc(OC)c(Br)c(Nc2ncncc2-c2cc(Nc3cc(CN4CCOCC4)ccn3)ncn2)c1Cl` [Compound 51, N4′-(2-Bromo-6-chloro-3,5-dimethoxy-phenyl)-N6-(4-morpholin-4-ylmethyl-pyridin-2-yl)-[4,5′]bipyrimidinyl-6,4′-diamine] reads less than 100 nM; that for `COc1cc(OC)c(Cl)c(Nc2ncncc2-c2cc(Nc3ccc(CN4CCOCC4)cn3)ncn2)c1C` [Compound 52, N4′-(2-Chloro-3,5-dimethoxy-6-methyl-phenyl)-N6-(5-morpholin-4-ylmethyl-pyridin-2-yl)-[4,5′]bipyrimidinyl-6,4′-diamine], less than 100 nM.

For orientation: GI50 means the concentration giving 50% growth inhibition.
